Legend:
TrkA kinase = TrkA kinase (Homo sapiens, UniProt P04629); assay: TrkA kinase biochemical activity assay (AlphaScreen); settings: 100 μM ATP; read-out: Biochemical Inhibition IC50 TrkA
In short: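 Recombinant TrkA with 30 nM biotin-(E4Y)10 and 100 μM ATP in 25 mM Hepes pH 7.5, 10 mM MnCl2, 5% DMSO, 40 min at room temperature. Phosphorylation read by AlphaScreen (streptavidin donor, PY20 acceptor beads); IC50 from signal vs compound concentration. TrkC run similarly.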

SKNSH cells = assay: SKNSH (human neuroblastoma) cell proliferation assay (ATPlite); format: cell-based; settings: SK-N-SH, read-out: Inhibition of Cell Proliferation IC50, SKNSH
In short: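 SK-N-SH human neuroblastoma cells grown in RPMI with 10% FBS were pelleted, resuspended at 2×10^4 cells/mL, and plated at 3,000 cells per well (150 μL) in 96-well plates, then kept overnight at 37° C. in 5% CO2. Compounds in an 8-point 1:3 DMSO series were added as 0.75 μL aliquots.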

Chain of TrkA kinase (P04629 33-796): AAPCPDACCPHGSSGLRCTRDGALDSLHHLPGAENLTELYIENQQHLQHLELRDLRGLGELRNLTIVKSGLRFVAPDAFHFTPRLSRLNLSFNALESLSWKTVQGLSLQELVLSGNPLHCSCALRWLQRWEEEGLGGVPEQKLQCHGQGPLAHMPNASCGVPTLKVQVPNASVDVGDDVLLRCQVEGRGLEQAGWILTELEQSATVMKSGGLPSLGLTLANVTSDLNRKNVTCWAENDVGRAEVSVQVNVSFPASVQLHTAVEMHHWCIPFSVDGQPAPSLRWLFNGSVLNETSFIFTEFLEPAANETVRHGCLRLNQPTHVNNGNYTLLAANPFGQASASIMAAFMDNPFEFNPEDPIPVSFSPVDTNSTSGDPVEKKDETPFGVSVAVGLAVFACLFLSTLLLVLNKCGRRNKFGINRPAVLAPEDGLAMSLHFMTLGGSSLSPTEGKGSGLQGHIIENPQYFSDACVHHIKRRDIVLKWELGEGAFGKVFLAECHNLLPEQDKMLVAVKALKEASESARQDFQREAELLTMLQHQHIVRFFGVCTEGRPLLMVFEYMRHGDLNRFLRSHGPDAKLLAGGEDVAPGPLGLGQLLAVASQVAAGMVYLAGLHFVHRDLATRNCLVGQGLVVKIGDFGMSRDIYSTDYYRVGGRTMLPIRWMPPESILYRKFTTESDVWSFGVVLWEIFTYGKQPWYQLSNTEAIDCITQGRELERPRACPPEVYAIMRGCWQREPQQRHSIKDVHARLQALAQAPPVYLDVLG

IC50 (TrkA kinase) [µM]	IC50 (SKNSH cells) [µM]	Structure (SMILES)
< 0.01		Fc1nc(Nc2ccc(C3CC3)nc2)ccc1Cc1c[nH]c2ncnc(C3CC3)c12 [Compound P-4041, (6-Cyclopropyl-pyridin-3-yl)-[5-(4-cyclopropyl-7H-pyrrolo[2,3-d]pyrimidin-5-ylmethyl)-6-fluoro-pyridin-2-yl]-amine]
< 0.1	< 10	CNc1ncnc2[nH]cc(C(=O)c3cnc(NC4CCC(F)(F)CC4)c(F)c3)c12 [Compound P-4054, [6-[(4,4-difluorocyclohexyl)amino]-5-fluoro-3-pyridyl]-[4-(methylamino)-7H-pyrrolo[2,3-d]pyrimidin-5-yl]methanone]
< 1	< 10	Nc1ncnc2[nH]cc(C(=O)c3ccc(NC4CCC(F)(F)CC4)nc3Cl)c12 [Compound P-4046, (4-amino-7H-pyrrolo[2,3-d]pyrimidin-5-yl)-[2-chloro-6-[(4,4-difluorocyclohexyl)amino]-3-pyridyl]methanone]
< 0.01		O=C(c1ccc(Nc2ccc(C3CC3)nc2)nc1F)c1c[nH]c2ncnc(C3CC3)c12 [Compound P-4040, [6-(6-Cyclopropyl-pyridin-3-ylamino)-2-fluoro-pyridin-3-yl]-(4-cyclopropyl-7H-pyrrolo[2,3-d]pyrimidin-5-yl)-methanone]
< 1	< 1	CCNc1ncnc2[nH]cc(C(=O)c3ccc(NC4CCC(F)(F)CC4)nc3Cl)c12 [Compound P-4050, [2-chloro-6-[(4,4-difluorocyclohexyl)amino]-3-pyridyl]-[4-(ethylamino)-7H-pyrrolo[2,3-d]pyrimidin-5-yl]methanone]

Continued, molecule first:

Structure (SMILES)	IC50 (TrkA kinase) [µM]	IC50 (SKNSH cells) [µM]
CC(C)=CNc1ncnc2[nH]cc(C(=O)c3ccc(NC4CCC(F)(F)CC4)nc3Cl)c12 [Compound P-4047, [2-chloro-6-[(4,4-difluorocyclohexyl)amino]-3-pyridyl]-[4-(2-methylprop-1-enylamino)-7H-pyrrolo[2,3-d]pyrimidin-5-yl]methanone]	> 1	
O=C(c1cnc(NC2CCC(F)(F)CC2)c(F)c1)c1c[nH]c2ncnc(NCC(F)(F)F)c12 [Compound P-4052, [6-[(4,4-difluorocyclohexyl)amino]-5-fluoro-3-pyridyl]-[4-(2,2,2-trifluoroethylamino)-7H-pyrrolo[2,3-d]pyrimidin-5-yl]methanone]	< 1	> 1
O=C(c1cnc(NC2CCC(F)(F)CC2)c(F)c1)c1c[nH]c2ncnc(NC3CC3)c12 [Compound P-4053, [4-(cyclopropylamino)-7H-pyrrolo[2,3-d]pyrimidin-5-yl]-[6-[(4,4-difluorocyclohexyl)amino]-5-fluoro-3-pyridyl]methanone]	< 0.01	< 1
Nc1ncnc2[nH]cc(C(=O)c3ccc(Nc4ccc(C5CC5)nc4)nc3F)c12 [Compound P-4048, (4-amino-7H-pyrrolo[2,3-d]pyrimidin-5-yl)-[6-[(6-cyclopropyl-3-pyridyl)amino]-2-fluoro-3-pyridyl]methanone]	< 0.01	< 1
CCNc1ncnc2[nH]cc(C(=O)c3cnc(NC4CCC(F)(F)CC4)c(F)c3)c12 [Compound P-4051, [6-[(4,4-difluorocyclohexyl)amino]-5-fluoro-3-pyridyl]-[4-(ethylamino)-7H-pyrrolo[2,3-d]pyrimidin-5-yl]methanone]	< 0.01	< 1
CC(C)(O)CNc1ncnc2[nH]cc(C(=O)c3ccc(Nc4ccc(C5CC5)nc4)nc3F)c12 [Compound P-4049, [6-[(6-cyclopropyl-3-pyridyl)amino]-2-fluoro-3-pyridyl]-[4-[(2-hydroxy-2-methyl-propyl)amino]-7H-pyrrolo[2,3-d]pyrimidin-5-yl]methanone]	< 0.01	< 1
